US20190046469A1, “COMPOSITIONS AND METHODS FOR TREATING MOOD DISORDERS OR SKIN DISEASE OR DAMAGE” (priority 2012, published 2019)

How the values were obtained:
[1] = test system: OXT (Homo sapiens oxytocin/neurophysin I prepropeptide mRNA, NM_000915); assay: Full thickness tissue DNA microarray screening, OXT gene expression; assay type: cell-based
Text: (§1) DNA microarrays were used to screen xanthohumol for changes in the expression of thousands of different genes. DNA microarrays are extremely powerful tools that allow users to analyze changes in gene expression by monitoring changes in the messenger ribonucleic acid (“mRNA”) of hundreds to thousands of genes in a single experiment. All cells function by using their genes to make protein products. This process starts by making an mRNA copy of the gene through a process called transcription. The mRNA copy is then translated into a protein that plays a functional role within the cell or the cell's environment. Since the process of gene expression is highly regulated, the amount of mRNA can be a good indicator of the level of activity for a specific gene. With the introduction of DNA microarrays, researchers can now rapidly obtain a much more global view of what is happening inside of a cell since the results of one or two array experiments can potentially generate data on changes in gene expression across the entire known human genome.
(§2) This would result in a ratio of 1. If a treatment increases the expression of a gene, then the median intensity of the feature would be greater in the scan from the red laser than the green, resulting in a ration that is greater than 1. […] These broader ranges are a more conservative judging criterion and account for possible sources of variation in fluorescence intensity that are not associated with the treatment.
(§3) In addition to the information on active ingredients and raw materials that the DNA microarray can provide, the arrays can be used to better characterize the mechanisms of action related to certain therapeutic categories. The array data also allows the verification that a gene of interest is expressed in a certain model before running an experiment. The following tables provide the data based on the ratio of means after 50 μL of a xanthohumol liquid formulation with a concentration of 5 mg/ml xanthohumol was used in the following experiment. RNA was isolated from the tissues for subsequent analysis via DNA microarrays.

[2] = test system: OXTR (Homo sapiens oxytocin receptor mRNA, NM_000916); assay: Full thickness tissue DNA microarray screening, OXTR gene expression; assay type: cell-based
Text: as §1, §2, §3

[3] = 50 μL of xanthohumol liquid formulation, 5 mg/ml, full thickness tissue, >=1.3 up-regulated, <=0.7 down-regulated
[4] = 50 μL of xanthohumol liquid formulation, 5 mg/ml, green laser scan
[5] = 50 μL of xanthohumol liquid formulation, 5 mg/ml, red laser scan (treated)
[6] = ratio of means above 1.3 = up-regulated

COc1cc(O)c(CC=C(C)C)c(O)c1C(=O)/C=C/c1ccc(O)cc1 [xanthohumol]
Ratio of Means (OXT) [1, 3]: 2.488 | F532 Median (OXT) [1, 4]: 78 | F635 Median (OXT) [1, 5]: 171 | regulation of OXT gene (in words) [1, 6]: significantly up-regulated | Ratio of Means (OXTR) [2, 3]: 3.5 | F532 Median (OXTR) [2, 4]: 43 | F635 Median (OXTR) [2, 5]: 53 | up-regulation of OXTR ([2]; DNA microarray): greater than 50% | regulation of OXTR gene (in words) [2, 6]: significantly up-regulated
